One assay deals with T1, Aurora A protein (Homo sapiens, UniProt O14965).
T1 construct: purchased Carna Biosciences
T1 sequence (O14965 1-403): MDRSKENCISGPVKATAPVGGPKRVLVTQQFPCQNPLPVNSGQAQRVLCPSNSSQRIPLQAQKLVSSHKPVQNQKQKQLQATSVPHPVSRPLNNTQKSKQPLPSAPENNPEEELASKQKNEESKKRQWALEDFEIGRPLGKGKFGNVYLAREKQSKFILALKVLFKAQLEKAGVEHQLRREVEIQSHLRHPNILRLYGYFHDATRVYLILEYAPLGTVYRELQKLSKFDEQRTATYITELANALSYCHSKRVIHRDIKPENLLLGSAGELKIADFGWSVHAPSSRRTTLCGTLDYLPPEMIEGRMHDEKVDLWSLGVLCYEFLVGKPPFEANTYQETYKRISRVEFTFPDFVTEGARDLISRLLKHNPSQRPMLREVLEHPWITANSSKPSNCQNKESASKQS
In words: Aurora A inhibitory activity (IMAP). The format is biochemical. The note with it: at a concentration of 1 μmol/L; 10 μmol/L ATP. How it is done: The following procedure was employed to measure the Aurora A inhibitory activity.
A 20 μL sample containing Aurora A protein (Carna Biosciences) at a final concentration of 0.35 mg/mL, 20 mmol/L HEPES (pH 7.4), 0.01% Tween-20, 2 mmol/L DTT, 100 nmol/L PKAtide, 1 mmol/L magnesium acetate, 10 μmol/L adenosine-5′-triphosphate (ATP), 1% dimethylsulfoxide (DMSO), and 1 μmol/L test compound was prepared and enzyme reaction was conducted at room temperature for 60 minutes. Phosphorylation reaction was detected by using IMAP Screening Express kit (Molecular Devices Corp., R8073).
While assuming the observed value of a control to which ATP was added to be 100% and the observed value of a control to which no ATP was added to be 0%, the relative activity (%) of the radio activity of a sample containing a test compound was calculated, and the difference between 100 and the obtained percentage value was assumed to be the Aurora A inhibitory rate (%) of that test compound.

Assay [1] deals with human pancreatic cancer cell line (MIA-PaCa-2). Put plainly: Cytostatic activity against human pancreatic cancer cell line (WST-1). The format is cell-based. Conditions: at a concentration of 10 μmol/L, 72 hours, read-out: growth inhibitory activity. How it is done:
The cytostatic rate of Compound (I) against a human pancreatic cancer cell line (MIA-PaCa-2) was measured according to the following procedure.
MIA-PaCa-2 cells were cultured in a minimum essential medium (MEM) (GIBCO) containing a 10% fetal calf serum (FCS).
Each well of a TC Microwell 96F plate (Nalge Nunc) was inoculated with 50 μL of MIA-PaCa-2 cells at a density of 1000 cells/well, and the cells were incubated at 37° C. for 24 hours in a 5% carbon dioxide gas incubator. To each well, 50 μL of a solution containing a test compound prepared by stepwise dilution with the incubation medium of the respective cells was added and the resulting mixture was again incubated at 37° C. for 72 hours in a 5% carbon dioxide gas incubator. To each well, 10 μL of a WST-1 reagent (4-[3-(4-iodophenyl)-2-(4-nitrophenyl)-2H-5-tetrazolio]-1,3-benzene disulfonate sodium salt) (Roche Diagnostics K. K.) was added, followed by incubation at 37° C. for 2 hours and analysis with a microplate spectrometer, SpectraMax 340PC (Molecular Devices) to determine the absorbance at 450 nm (reference wavelength: 690 nm). The cytostatic rate was determined from the equation below by assuming the absorbance of the well containing cells similarly cultured by adding a solvent of the test compound solution to be 100%. Furthermore, the observed absorbance of a blank to which WST-1 was added immediately after addition of the solvent was used.

The target in a further assay is T2, Aurora B protein (Homo sapiens, UniProt Q96GD4).
T2 construct: purchased Carna Biosciences
Put plainly: Aurora B inhibitory activity (IMAP). The format is biochemical. Conditions: at a concentration of 1 μmol/L; 10 μmol/L ATP. How it is done:
The following procedure was employed to measure the Aurora B inhibitory activity.
A 20 μL sample containing Aurora B protein (Carna Biosciences) at a final concentration of 0.3 mg/mL, 20 mmol/L HEPES (pH 7.4), 0.01% Tween-20, 2 mmol/L DTT, 100 nmol/L Histone H3, 1 mmol/L magnesium acetate, 10 μmol/L ATP, 1% DMSO, and 1 μmol/L test compound was prepared and enzyme reaction was conducted at room temperature for 60 minutes. Phosphorylation reaction was detected by using IMAP Screening Express kit (Molecular Devices Corp., R8073).
While assuming the observed value of a control to which ATP was added to be 100% and the observed value of a control to which no ATP was added to be 0%, the relative activity (%) of the radio activity of a sample containing a test compound was calculated, and the difference between 100 and the obtained percentage value was assumed to be the Aurora B inhibitory rate (%) of that test compound.

The results in this text go back to US20090209537A1, “AURORA INHIBITORS” (Kyowa Hakko Kirin Co., Ltd., priority 2006, published 2009).

T2 sequence (Q96GD4 whole entry): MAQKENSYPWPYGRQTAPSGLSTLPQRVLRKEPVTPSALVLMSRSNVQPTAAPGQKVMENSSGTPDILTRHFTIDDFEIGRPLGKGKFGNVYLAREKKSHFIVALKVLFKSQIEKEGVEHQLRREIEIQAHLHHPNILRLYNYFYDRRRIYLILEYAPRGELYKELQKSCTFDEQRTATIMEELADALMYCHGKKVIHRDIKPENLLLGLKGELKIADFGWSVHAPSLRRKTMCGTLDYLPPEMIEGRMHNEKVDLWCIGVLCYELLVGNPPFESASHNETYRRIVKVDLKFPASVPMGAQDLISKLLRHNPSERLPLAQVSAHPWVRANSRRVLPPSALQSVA
T2 sequence (Q9NQS7 803-918 partner limits assumed): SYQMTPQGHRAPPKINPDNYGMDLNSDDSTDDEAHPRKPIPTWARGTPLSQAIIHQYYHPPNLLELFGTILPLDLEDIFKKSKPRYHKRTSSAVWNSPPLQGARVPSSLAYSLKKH

Consider `CC(=O)N1CCN(C(=O)c2ccc(/C=C/c3n[nH]c4ccccc34)cc2)CC1` [Compound 6], for which the inhibition at 1 µM at Aurora A protein and at Aurora B protein was at least 90% throughout. The inhibition at 10 µM in assay [1] is at least 50%.

As to `Nc1cc(/C=C/c2n[nH]c3ccccc23)ccc1OCCN1CCOCC1` [Compound 4], the inhibition at 1 µM against Aurora A protein and on Aurora B protein was at least 90% throughout. Further, the inhibition at 10 µM in assay [1] is at least 50%.

As for `COCC(=O)N1CCN(C(=O)c2ccc(/C=C/c3n[nH]c4ccccc34)cc2)CC1` [Compound 7], the inhibition at 1 µM at Aurora A protein and against Aurora B protein was at least 90% each time. In assay [1], the inhibition at 10 µM was at least 50%.
